According to patent US11629171B2, “Beta-hairpin peptidomimetics” (POLYPHOR AG, priority 2017, dated 2023):
Values after ≈ are worked out from the molar mass of the structure shown. Where a SMILES comes first, the peptide text is derived from it. Bridges are numbered along the chain shown (N, C = ends). Roman numbers before positions name the chains, in order. [ ]: non-standard residue; d: D form. The star is where a group is joined. Leu(3R-OH) = CC(C)[C@@H](O)[C@H](N)C(=O)O; Thr(ol) = C[C@@H](O)[C@H](N)CO; Tle = CC(C)(C)[C@H](N)C(=O)O; dDab = NCC[C@@H](N)C(=O)O; hSer = N[C@@H](CCO)C(=O)O; Dab = NCC[C@H](N)C(=O)O; Dap = NC[C@H](N)C(=O)O; NHCH2CH2OH = OCCN*

What was measured:
Type in all cases: cell-based
[1] = test system: human red blood cells (hRBC); experiment: Hemolysis; settings: red cells of human, 1 h, 200
How it was run: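 Read-out is supernatant absorbance at 540 nm, normalised to full lysis by 2% Triton X-100 and zero lysis by PBS with 10% water. Peptides (200 μg/mL) were exposed to 20% v/v washed human erythrocytes at 37° C for 1 h under shaking.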

[2] = test system: Pseudomonas aeruginosa ATCC 27853; settings: ATCC 27853
How it was run: (§1)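 CLSI broth microdilution in cation-adjusted Mueller-Hinton II broth with 0.002% polysorbate 80 (final), inoculum appr. 10^6 CFU/mL, peptides in serial two-fold dilutions. MIC (μg/mL) is the lowest concentration without visible growth after 18-20 h at 35° C.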

[3] = test system: Acinetobacter baumannii DSM 30008; settings: DSM 30008
How it was run: as §1

[4] = test system: Escherichia coli 926415; settings: 926415
How it was run: as §1

[5] = test system: Escherichia coli ATCC 25922; settings: ATCC 25922
How it was run: as §1

[6] = test system: Acinetobacter baumannii 872842; settings: 872842
How it was run: as §1

[7] = test system: Klebsiella pneumoniae SSI #3010; settings: SSI #3010
How it was run: as §1

[8] = test system: Enterobacter cloacae 848840; settings: 848840
How it was run: as §1

[9] = test system: Klebsiella pneumoniae 968733; settings: 968733
How it was run: as §1

MIC [2] [mg/L] | MIC [3] [mg/L] | MIC [4] [mg/L] | MIC [5] [mg/L] | MIC [6] [mg/L] | MIC [7] [mg/L] | MIC [8] [mg/L] | MIC [9] [mg/L] | SMILES | Hemolysis at 200 μg/mL [1] [%]
0.125 (≈ 0.0515 µM) | 0.0625 (≈ 0.0258 µM) | 0.5 (≈ 0.206 µM) | 0.125 (≈ 0.0515 µM) | 0.5 (≈ 0.206 µM) | 0.125 (≈ 0.0515 µM) | 4 (≈ 1.65 µM) | 1 (≈ 0.412 µM) | CC(=O)N[C@H](C(=O)N[C@H]1CSSC[C@@H](C(=O)N[C@@H](CO)C(N)=O)NC(=O)[C@H](Cc2ccc(O)cc2)NC(=O)[C@H](CO)NC(=O)[C@H](Cc2c[nH]c3ccccc23)NC(=O)[C@H](CCO)NC(=O)[C@@H](CCN)NC(=O)[C@H](CCC(=O)N[C@@H](CCN)C(=O)N[C@H](C(=O)N[C@@H](CCN)C(=O)N[C@H]2CCNC(=O)[C@H]([C@@H](C)O)NC(=O)[C@H](CCN)NC(=O)[C@H](CCN)NC(=O)[C@H](CC(C)C)NC(=O)[C@@H](CC(C)C)NC(=O)[C@H](CCN)NC2=O)[C@@H](C)O)NC(=O)[C@H](CCN)NC(=O)[C@H](C(C)C)NC1=O)C(C)C [Ex. 64] (I: Ac-VCV[Dab]E[dDab][hSer]WSYCS-NH2 / II: [Dab]T[Dab][Dab][Dab][dL]L[Dab][Dab]T; disulfide I:2-I:11; amide I:5-II:N; lactam II:4-II:C) | <1
0.125 (≈ 0.0503 µM) | 0.0625 (≈ 0.0252 µM) | 0.25 (≈ 0.101 µM) | 0.0625 (≈ 0.0252 µM) | 0.125 (≈ 0.0503 µM) | 0.125 (≈ 0.0503 µM) | 0.25 (≈ 0.101 µM) | 0.25 (≈ 0.101 µM) | CC(=O)N[C@H](C(=O)N[C@H]1CSSC[C@@H](C(=O)N[C@@H](Cc2ccc(O)cc2)C(=O)NCCO)NC(=O)[C@H](C(C)(C)C)NC(=O)[C@H](CO)NC(=O)[C@H](Cc2c[nH]c3ccccc23)NC(=O)[C@H](CCO)NC(=O)[C@@H](CCN)NC(=O)[C@H](CCC(=O)N[C@@H](CCN)C(=O)N[C@H](C(=O)N[C@@H](CCN)C(=O)N[C@H]2CCNC(=O)[C@H]([C@@H](C)O)NC(=O)[C@H](CCN)NC(=O)[C@H](CCN)NC(=O)[C@H](CC(C)C)NC(=O)[C@@H](CC(C)C)NC(=O)[C@H](CCN)NC2=O)[C@@H](C)O)NC(=O)[C@H](CCN)NC(=O)[C@H](CO)NC1=O)C(C)C [Ex. 71] (I: Ac-VCS[Dab]E[dDab][hSer]WS[Tle]CY-NHCH2CH2OH / II: [Dab]T[Dab][Dab][Dab][dL]L[Dab][Dab]T; disulfide I:2-I:11; amide I:5-II:N; lactam II:4-II:C) | 1
0.25 (≈ 0.0979 µM) | 0.03125 (≈ 0.0122 µM) | 0.0625 (≈ 0.0245 µM) | 0.0625 (≈ 0.0245 µM) | 0.0625 (≈ 0.0245 µM) | 0.125 (≈ 0.049 µM) | 0.125 (≈ 0.049 µM) | 0.5 (≈ 0.196 µM) | CC(=O)N[C@@H](CCN)C(=O)N[C@H](C(=O)N[C@H](C(=O)N[C@@H](Cc1ccc(O)cc1)C(=O)N[C@H]1CSSC[C@@H](C(=O)N[C@H](C(=O)N[C@@H](C)C(=O)N[C@H](C(N)=O)C(C)C)C(C)(C)C)NC(=O)[C@H](Cc2c[nH]c3ccccc23)NC(=O)[C@H](CCN)NC(=O)[C@@H](CCN)NC(=O)[C@H](CCC(=O)N[C@@H](CCN)C(=O)N[C@H](C(=O)N[C@@H](CN)C(=O)N[C@H]2CCNC(=O)[C@H]([C@@H](C)O)NC(=O)[C@H](CCN)NC(=O)[C@H](CCN)NC(=O)[C@H](CC(C)C)NC(=O)[C@@H](CC(C)C)NC(=O)[C@H](CCN)NC2=O)[C@@H](C)O)NC1=O)[C@@H](C)O)[C@H](O)C(C)C [Ex. 240] (I: Ac-[Dab][Leu(3R-OH)]TYCE[dDab][Dab]WC[Tle]AV-NH2 / II: [Dab]T[Dap][Dab][Dab][dL]L[Dab][Dab]T; disulfide I:5-I:10; amide I:6-II:N; lactam II:4-II:C) | 1
0.125 (≈ 0.0512 µM) | 0.0625 (≈ 0.0256 µM) | 0.25 (≈ 0.102 µM) | 0.125 (≈ 0.0512 µM) | 0.25 (≈ 0.102 µM) | 0.125 (≈ 0.0512 µM) | 1 (≈ 0.41 µM) | 0.125 (≈ 0.0512 µM) | CC(=O)N[C@@H](C(=O)N[C@H]1CSSC[C@@H](C(=O)N[C@H](CO)[C@@H](C)O)NC(=O)[C@H](C(C)(C)C)NC(=O)[C@H](CO)NC(=O)[C@H](Cc2c[nH]c3ccccc23)NC(=O)[C@H](CCO)NC(=O)[C@@H](CCN)NC(=O)[C@H](CCC(=O)N[C@@H](CCN)C(=O)N[C@H](C(=O)N[C@@H](CCN)C(=O)N[C@H]2CCNC(=O)[C@H]([C@@H](C)O)NC(=O)[C@H](CCN)NC(=O)[C@H](CCN)NC(=O)[C@H](CC(C)C)NC(=O)[C@@H](CC(C)C)NC(=O)[C@H](CCN)NC2=O)[C@@H](C)O)NC(=O)[C@H](CCN)NC(=O)[C@H](Cc2ccc(O)cc2)NC1=O)C(C)C [Ex. 86] (I: Ac-[dV]CY[Dab]E[dDab][hSer]WS[Tle]C[Thr(ol)] / II: [Dab]T[Dab][Dab][Dab][dL]L[Dab][Dab]T; disulfide I:2-I:11; amide I:5-II:N; lactam II:4-II:C) | <1
